IC50 data for 25 molecules are collected here from patent publication US8158621B2, “Methods of treating or preventing autoimmune diseases with 2,4-pyrimidinediamine compounds” (Rigel Pharmaceuticals, Inc., priority 2002, dated 2012).

For one experiment, the system named is cultured human mast cells (CHMC). Nature of the experiment: CHMC low cell density ionomycin activation: tryptase assay. Type of experiment: cell-based. The conditions noted are these: Low Density; read-out: CHMC Ionomycin Tryptase.
`Cc1cc(Nc2nc(Nc3cccc(OCCN4CCOCC4)c3)ncc2F)cc(Cl)c1O` [Compound R940269]: the IC50 was greater than 10 µM.

The same experiment, now with this note: low cell density; read-out: CHMC Ionomycin Tryptase.
As for `O=C(NCC(O)CO)C1Cc2cc(Nc3ncc(F)c(Nc4ccc(OC(F)(F)F)c(Cl)c4)n3)ccc2O1` (mixture of isomers) [Compound R926958], the IC50 is greater than 10 µM.
Still for that read-out and setting: as for `COc1cc(Nc2ncc(F)c(Nc3ccc4c(c3)NC(=O)C(C)(C)O4)n2)cc(OC)c1` [Compound R927074], the figure is 1.38 µM.
On to `CNC(=O)n1ccc2ccc(Nc3ncc(F)c(Nc4ccc(OC)c(Cl)c4)n3)cc21` [Compound R927094], for which the IC50 was greater than 10 µM.
Turning to `CNC(=O)COc1cccc(Nc2ncc(F)c(Nc3ccc4c(c3)C(N(C)C(=O)OC(C)(C)C)CCO4)n2)c1` (racemic) [Compound R950415], the IC50 was found to be 16.3 µM.
The same measure, in the same setting: as for `COc1cc(Nc2ncc(F)c(Nc3ccc4c(c3)C(N)CCO4)n2)cc(OC)c1` (racemic) [Compound R950426], the figure is 30 µM; as for `COc1ccc(Nc2nc(Nc3cccc(OCC(=O)NC4CCC4)c3)ncc2F)cc1Cl` [Compound R926969], greater than 10 µM.
Same read-out and setting: in the case of `CNC(=O)n1ccc2ccc(Nc3nc(Nc4cc(C)cc(C)c4)ncc3F)cc21` [Compound R927099] it was greater than 10 µM; in that of `CC(C)(C)OC(=O)NC1CCOc2ccc(Nc3nc(Nc4ccc5cn[nH]c5c4)ncc3F)cc21` (racemic) [Compound R950422], 6.53 µM; in that of `NC(=O)c1ccc(Nc2ncc(F)c(Nc3ccc4c(c3)NC(=O)C(CCO)O4)n2)cc1` (racemic) [Compound R950454], greater than 10 µM.
Same read-out and setting: as for `CC(C)Oc1ccc(Nc2nc(Nc3ccc4c(c3)C[C@H](C(=O)O[C@@H]3C[C@H](C)CC[C@H]3C(C)C)O4)ncc2F)cc1` [Compound R927062], the figure is greater than 10 µM; as for `CNC(=O)COc1cccc(Nc2ncc(F)c(Nc3ccc(OCC(=O)NC)c(Cl)c3)n2)c1` [Compound R927043], greater than 10 µM; as for `O=C(COc1cccc(Nc2ncc(F)c(NC3CC3)n2)c1)Nc1ccc(N2CCOCC2)cc1` [Compound R945365], greater than 10 µM.
For `CC1(C)Oc2ccc(Nc3nc(Nc4ccc5cc[nH]c5c4)ncc3F)nc2NC1=O` [Compound R945444], the IC50 is greater than 10 µM.
On the same count and under the same terms, in the case of `COc1ccc(Nc2ncc(F)c(Nc3ccc4c(c3)NC(=O)C(C)(C)O4)n2)cc1Cl` [Compound R927097] it was 0.847 µM; in that of `COc1cc(Nc2ncc(F)c(Nc3ccc4c(c3)NC(=O)C(CCO)O4)n2)cc(OC)c1` (racemic) [Compound R908950], 47.5 µM.
The same measure, in the same setting: in the case of `CC1(C)C(=O)NC(=O)c2cc(Nc3nc(N[C@@H]4CCCC[C@H]4N)ncc3F)ccc21` [Compound R950442] it was greater than 10 µM.
Same read-out and setting: as for `CC(=O)Nc1cccc(Nc2nc(Nc3cc(C)cc(C)c3)ncc2F)n1` [Compound R927092], the figure is greater than 10 µM; as for `CNC(=O)CCn1ncc2cc(Nc3ncc(F)c(Nc4ccc(OC)c(Cl)c4)n3)ccc21` [Compound R935462], greater than 10 µM.
Take `Fc1cnc(Nc2ccc(OC(F)(F)F)c(Cl)c2)nc1Nc1ccc2c(c1)OCCO2` [Compound R927085]: the IC50 is greater than 10 µM.
On the same count and under the same terms, in the case of `Cn1ncc2ccc(Nc3ncc(F)c(Nc4ccc5c(c4)OCCO5)n3)cc21` [Compound R935392] it was greater than 10 µM; in that of `O=C(NCCO)C1Cc2cc(Nc3ncc(F)c(Nc4ccc(OC(F)(F)F)c(Cl)c4)n3)ccc2O1` (racemic) [Compound R926959], greater than 10 µM; in that of `Cc1cc(Nc2ncc(F)c(Nc3ccc4c(c3)C(=O)NC(=O)C4(C)C)n2)cc(Cl)c1O` [Compound R909320], greater than 10 µM.
On the same count and under the same terms, in the case of `O=C(COc1cccc(Nc2ncc(F)c(Nc3ccc(N4CCOCC4)cc3)n2)c1)NC1CC1` [Compound R945360] it was greater than 10 µM; in that of `CNC(=O)COc1cccc(Nc2ncc(F)c(Nc3ccc4c(c3)[C@@H](NC(=O)OCc3ccccc3)CCO4)n2)c1` [Compound R950417], greater than 10 µM.

A further experiment has as its system Human Jurkat T-cells (clone N). Nature of the experiment: Jurkat T-cell activation (anti-TCR, CD69 upregulation).
Settings: not given
Format: cell-based. The essentials: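 Readout is CD69 upregulation by flow cytometry (anti-CD69-APC, 20 min at 4 °C) after 20 h anti-TCR (C305, 500 ng/ml) stimulation at 37 °C.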
Consider `Cc1cc(Nc2nc(Nc3cccc(OCCN4CCOCC4)c3)ncc2F)cc(Cl)c1O` [Compound R940269], for which the IC50 worked out at 1.9 µM.

A further experiment deals with cultured human mast cells (CHMC). Put plainly: CHMC low cell density IgE activation: tryptase assay. Type of experiment: cell-based. The following applies: low cell density; read-out: CHMC anti-IgE Tryptase. The gist of the method: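 Supernatant tryptase activity, assayed with substrate for 30 min at room temperature, served as the degranulation measure. Mast cells (1000-1500 per well depending on donor) sat 1 hr at 37° C in MT before a 30 min anti-IgE challenge at 37° C.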
For `O=C(NCC(O)CO)C1Cc2cc(Nc3ncc(F)c(Nc4ccc(OC(F)(F)F)c(Cl)c4)n3)ccc2O1` (mixture of isomers) [Compound R926958], the IC50 is 0.353 µM.
Same read-out and setting: as for `COc1cc(Nc2ncc(F)c(Nc3ccc4c(c3)NC(=O)C(C)(C)O4)n2)cc(OC)c1` [Compound R927074], the figure is 0.072 µM; as for `CNC(=O)n1ccc2ccc(Nc3ncc(F)c(Nc4ccc(OC)c(Cl)c4)n3)cc21` [Compound R927094], greater than 10 µM.
Still for that read-out and setting: as for `CNC(=O)COc1cccc(Nc2ncc(F)c(Nc3ccc4c(c3)C(N(C)C(=O)OC(C)(C)C)CCO4)n2)c1` (racemic) [Compound R950415], the figure is 5.19 µM; as for `COc1cc(Nc2ncc(F)c(Nc3ccc4c(c3)C(N)CCO4)n2)cc(OC)c1` (racemic) [Compound R950426], 0.142 µM.
On the same count and under the same terms, in the case of `COc1ccc(Nc2nc(Nc3cccc(OCC(=O)NC4CCC4)c3)ncc2F)cc1Cl` [Compound R926969] it was 0.359 µM; in that of `CNC(=O)n1ccc2ccc(Nc3nc(Nc4cc(C)cc(C)c4)ncc3F)cc21` [Compound R927099], greater than 10 µM; in that of `CC(C)(C)OC(=O)NC1CCOc2ccc(Nc3nc(Nc4ccc5cn[nH]c5c4)ncc3F)cc21` (racemic) [Compound R950422], 0.475 µM.
Take `NC(=O)c1ccc(Nc2ncc(F)c(Nc3ccc4c(c3)NC(=O)C(CCO)O4)n2)cc1` (racemic) [Compound R950454]: the IC50 came out at 8.64 µM.
On the same count and under the same terms, as for `CC(C)Oc1ccc(Nc2nc(Nc3ccc4c(c3)C[C@H](C(=O)O[C@@H]3C[C@H](C)CC[C@H]3C(C)C)O4)ncc2F)cc1` [Compound R927062], the figure is 15.4 µM; as for `CNC(=O)COc1cccc(Nc2ncc(F)c(Nc3ccc(OCC(=O)NC)c(Cl)c3)n2)c1` [Compound R927043], 0.45 µM.
Same read-out and setting: as for `O=C(COc1cccc(Nc2ncc(F)c(NC3CC3)n2)c1)Nc1ccc(N2CCOCC2)cc1` [Compound R945365], the figure is 0.257 µM; as for `CC1(C)Oc2ccc(Nc3nc(Nc4ccc5cc[nH]c5c4)ncc3F)nc2NC1=O` [Compound R945444], 0.043 µM; as for `COc1ccc(Nc2ncc(F)c(Nc3ccc4c(c3)NC(=O)C(C)(C)O4)n2)cc1Cl` [Compound R927097], 0.163 µM.
The same measure, in the same setting: in the case of `COc1cc(Nc2ncc(F)c(Nc3ccc4c(c3)NC(=O)C(CCO)O4)n2)cc(OC)c1` (racemic) [Compound R908950] it was 0.074 µM; in that of `CC1(C)C(=O)NC(=O)c2cc(Nc3nc(N[C@@H]4CCCC[C@H]4N)ncc3F)ccc21` [Compound R950442], greater than 10 µM; in that of `CC(=O)Nc1cccc(Nc2nc(Nc3cc(C)cc(C)c3)ncc2F)n1` [Compound R927092], 0.377 µM.
In the case of `CNC(=O)CCn1ncc2cc(Nc3ncc(F)c(Nc4ccc(OC)c(Cl)c4)n3)ccc21` [Compound R935462], the IC50 is 0.364 µM.
The same measure, in the same setting: in the case of `Fc1cnc(Nc2ccc(OC(F)(F)F)c(Cl)c2)nc1Nc1ccc2c(c1)OCCO2` [Compound R927085] it was 7.43 µM; in that of `Cn1ncc2ccc(Nc3ncc(F)c(Nc4ccc5c(c4)OCCO5)n3)cc21` [Compound R935392], 0.204 µM; in that of `O=C(NCCO)C1Cc2cc(Nc3ncc(F)c(Nc4ccc(OC(F)(F)F)c(Cl)c4)n3)ccc2O1` (racemic) [Compound R926959], 0.3 µM.
On the same count and under the same terms, as for `Cc1cc(Nc2ncc(F)c(Nc3ccc4c(c3)C(=O)NC(=O)C4(C)C)n2)cc(Cl)c1O` [Compound R909320], the figure is 0.29 µM.
With `O=C(COc1cccc(Nc2ncc(F)c(Nc3ccc(N4CCOCC4)cc3)n2)c1)NC1CC1` [Compound R945360], the IC50 was 1.37 µM.
Still for that read-out and setting: as for `CNC(=O)COc1cccc(Nc2ncc(F)c(Nc3ccc4c(c3)[C@@H](NC(=O)OCc3ccccc3)CCO4)n2)c1` [Compound R950417], the figure is 2.16 µM.
